In patent US4952605A (priority 1988, dated 1990):

What was measured:
[1] = test system: PMA-induced ear edema (inflammation) in mice; assay: Mouse ear anti-inflammatory assay (PMA-induced edema); assay type: in vivo; conditions: for relative increase in ear weight: statistically significant difference
Method: Test compound and phorbol myristate acetate (PMA) are topically applied simultaneously to the pinnae of the left ears of mice. PMA alone is applied to the right ear. Three hours and 20 minutes after application, the mice are sacrificed, left and right ears removed, and standard sized bores taken. Edema (inflammation) is measured as the difference in weight between left and right ears (C. G. Van Arman, Clin Pharmacol Ther (1974) 16:900-904).
The results of separate, similar experiments are set forth below (*=statistically significant difference).
In another separate experiment, the effect of dehydro-seco-manoalide was determined (PMA=15 μg/ear).
In separate, similar experiments, where […] was at 1.5 ug/ear, luffariellin A and B (50 ug/ear) gave statistically significant differences in relative increase in ear weight (0.308±0.065 and 0.262±0.053, respectively) as compared to PNA alone (0.618± 0.113); as did 50 ug luffariellolide (0.221±0.068) as compared to PMA alone (0.929±0.200).

[2] = target: bee venom phospholipase A2 (PLA2) (Apis mellifera, UniProt P00630); assay: biochemical; conditions: for inhibition at 0.75 µM: pH 7.4, read-out: Percent Inhibition of PLA2; for inhibition at 0.25 µM / inhibition at 0.5 µM / inhibition at 2 µM / inhibition at 4 µM: pH 7.4, read-out: Percent Inhibition of PLA2; for inhibition at 0.5 µM: 0.50 uM
[3] = target: bee venom PLA2 (Apis mellifera, UniProt P00630); assay: biochemical; conditions: pH 7.4
[4] = test system: Chinese hamster ovary K1 cells; assay: Effect on CHO cell growth; assay type: cell-based; conditions: Cricetulus griseus
Method: Chinese hamster ovary K1 cells are maintained in Dulbecco's Modified Eagle's Medium at 36° C. with 95% air and 5% CO2. Cells are transferred into 35 mm culture dishes, allowed 24 hours to adhere, then exposed to medium containing drug for the duration of the experiment. The number of adhered cells is counted at 24, 48, and 72 hours after initial exposure to drug.

[5] = dose 25.0 ug/ear topical, PMA 1.5 ug/ear, untreated 9.3 mg, PMA alone 23 mg, *=statistically significant
[6] = dose 50.0 ug/ear topical, PMA 1.5 ug/ear, untreated 9.3 mg, PMA alone 23 mg, *=statistically significant
[7] = 50 ug/ear, PNA [sic] 1.5 ug/ear, PNA alone 0.618±0.113

Sequence of bee venom phospholipase A2 (PLA2) (P00630 34-167 limits assumed): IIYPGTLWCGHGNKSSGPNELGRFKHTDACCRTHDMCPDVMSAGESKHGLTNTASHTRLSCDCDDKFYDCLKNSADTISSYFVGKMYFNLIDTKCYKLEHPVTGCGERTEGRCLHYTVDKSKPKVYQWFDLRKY
Sequence of bee venom PLA2 (P00630 34-167 limits assumed): as above

## CC(=O)OC1OC(=O)C=C1C1CC=C(CCC=C(C)CCC2=C(C)CCCC2(C)C)C(=O)O1 (stereo not shown) [Manoalide delta Lactone Acetate, manoalide delta-lactone acetate]
[1]; [5]
  Average Ear Weight: 16.64 mg/ear
[1]; [6]
  Average Ear Weight: 13.34 mg/ear

## CC(=CCCC1=CCC(C2=CC(=O)OC2O)OC1O)CCC1=C(C)CCCC1(C)C (stereo not shown) [Manoalide, reference compound]
[2]
  inhibition at 0.75 µM: 73.5%
  inhibition at 0.25 µM: 20.7%
  inhibition at 0.5 µM: 48%
  inhibition at 2 µM: 92.8%
  inhibition at 4 µM: 94.5%
[1]; dose 7.5 ug/ear topical, PMA 1.5 ug/ear, untreated 9.3 mg, PMA alone 23 mg, *=statistically significant
  Average Ear Weight: 20.45 mg/ear
[1]; dose 10.0 ug/ear topical, PMA 1.5 ug/ear, untreated 9.3 mg, PMA alone 23 mg, *=statistically significant
  Average Ear Weight: 19.75 mg/ear
[1]; dose 20.0 ug/ear topical, PMA 1.5 ug/ear, untreated 9.3 mg, PMA alone 23 mg, *=statistically significant
  Average Ear Weight: 17.00 mg/ear
[1]; dose 40.0 ug/ear topical, PMA 1.5 ug/ear, untreated 9.3 mg, PMA alone 23 mg, *=statistically significant
  Average Ear Weight: 16.80 mg/ear
[1]; dose 80.0 ug/ear topical, PMA 1.5 ug/ear, untreated 9.3 mg, PMA alone 23 mg, *=statistically significant
  Average Ear Weight: 12.90 mg/ear
[1]; dose 160.0 ug/ear topical, PMA 1.5 ug/ear, untreated 9.3 mg, PMA alone 23 mg, *=statistically significant
  Average Ear Weight: 12.60 mg/ear
[1]; dose 320.0 ug/ear topical, PMA 1.5 ug/ear, untreated 9.3 mg, PMA alone 23 mg, *=statistically significant
  Average Ear Weight: 11.20 mg/ear

## CC(=CCCC(=CCC(O)C1=CC(=O)OC1)CO)CCC1=C(C)CCCC1(C)C (stereo not shown) [Manoalide Diol, 3,7-Bis(hydroxymethyl)-4-hydroxy-11-methyl-13-(2,6,6-trimethylcyclohexenyl)-2,6,10-tridecatrienoic acid gamma-lactone]
[1]; [5]
  Average Ear Weight: 14.54 mg/ear
[1]; [6]
  Average Ear Weight: 13.17 mg/ear

## CC(=CCCC(C=O)=CC=CC1=CC(=O)OC1O)CCC1=C(C)CCCC1(C)C (stereo not shown) [Dehydro-seco-manoalide]
[2]
  inhibition at 0.75 µM: 51.3%
  inhibition at 0.25 µM: 30.3%
  inhibition at 0.5 µM: 61.8%
  inhibition at 2 µM: 72.4%
  inhibition at 4 µM: 87.3%
[1]; from dose/response data, relative to manoalide
  relative potency of dehydro-seco-manoalide to manoalide: 1.32
[1]; separate experiment, dose 50 ug/ear, PMA=15 μg/ear, no agent 24.60 mg/ear
  Average Ear Weight: 14.30 mg/ear

## CC(=CCCC1=CCC(C2=CC(=O)OC2O)OC1=O)CCC1=C(C)CCCC1(C)C (stereo not shown) [Manoalide delta Lactone, manoalide delta-lactone]
[1]; [5]
  Average Ear Weight: 16.28 mg/ear
[1]; [6]
  Average Ear Weight: 14.87 mg/ear

## C=C(C)C1(CCC(C)=CCCC(C=O)=CCC(O)C2=CC(=O)OC2O)CCCC1C (stereo not shown) [luffariellin B]
[1]; [7]
  relative increase in ear weight: 0.262±0.053

## C=C(C)C1(CCC(C)=CCCC2=CCC(C3=CC(=O)OC3O)OC2O)CCCC1C (stereo not shown) [luffariellin A]
[1]; [7]
  relative increase in ear weight: 0.308±0.065

## CC(=CCCC1=CC(=O)OC1O)CCC=C(C)CCC1=C(C)CCCC1(C)C (stereo not shown) [luffariellolide, 3-(4,8-dimethyl-10-(2,6,6-trimethylcyclohexenyl)-deca,7-dienyl)-4-hydroxybutenolide]
[3]; 0.25 uM
  inhibition at 0.25 µM: 59%
[3]; 0.5 uM
  inhibition at 0.5 µM: 59.7%
[3]; 1.0 uM
  inhibition at 1 µM: 62.6%
[4]; 24 hours
  inhibition at 42 µM: 63%
[4]; 48 hours
  inhibition at 42 µM: 74%
[4]; 72 hours
  inhibition at 42 µM: 71%
[1]; 50 ug, PMA alone 0.929±0.200
  relative increase in ear weight: 0.221±0.068
